Assay results taken from US7064243B2, “Screens and assays for agents useful in controlling parasitic nematodes” (Cambria Biosciences LLC, priority 2001, dated 2006).
Entries after “also recorded” stand apart in the source; their conditions may differ. Read-outs that look alike come from different tables or passages of the source.

Experiments:
[1] = tested on: secretion of the VAP-1-Myc fusion protein; assay: Secretion assay: immunoblot (anti-Myc) of VAP-1-Myc in conditioned axenic media of worms bearing the vap-1::myc transgene; assay type: in vivo, C. elegans; details: various concentrations, 16 hours, 24 well plates, dose-dependent fashion (FIG. 8)
Description: Worms (either animals bearing the vap-1::myc transgene or unc-119 (e2498) mutants rescued with plasmid pPD#MM016B as a negative control) were cultured in S basal medium (recipe below) containing HB101 bacteria as a food source for 4–5 days as described below. The worms were separated from the media by centrifugation and washed several times in S basal media. Worms were then resuspended in 50 ml of axenic media (recipe below) and cultured overnight (˜20 h). A vessel containing only axenic media without worms was maintained under identical conditions as a control. The worm density in both the vap-1::myc and unc-119 cultures was approximately 50,000 per ml. It was estimated that 50–70% of the worms carry the transgene.
After overnight incubation in axenic media, the worms and media were separated by centrifugation (see below for details) and the media were concentrated using Centriprep 30 concentrators (see below for details). […]
To determine the effect of 4,7 phenanthroline on secretion of the VAP-1-Myc fusion protein, worms (either transformation control or bearing the vap-1::myc transgene) were cultured in 24 well plates (in a manner similar to the 96 well scaledown protocol described below) in axenic media in the presence of various concencentrations of 4,7 phenanthroline for 16 hours. […] VAP-1-Myc fusion protein was detected with anti-Myc antibody as described above.

ASP-1 release = details: hookworm larvae, cited from earlier work
A. caninum L3 larvae = details: in vivo; cited from earlier work

For `c1cnc2ccc3ncccc3c2c1` [4,7-phenanthroline], the “secretion of the VAP-1-Myc fusion protein” value [1] is given as “inhibited”, the “release of ASP-1” value (ASP-1 release) is given as “known inhibitor; also recorded: blocked” and the “release of ASP-1” value (ASP-1 release; listed as 4,7 phenanthroline) is given as “known inhibitor”. For the same compound, the “resumption of larval hookworm development” value (A. caninum L3 larvae) was “blocked”.
